Measurements reported in patent US8003659B2, “Macrocyclic serine protease inhibitors” (Indenix Pharmaceuticals, Inc., priority 2008, dated 2011).

Columns and labels:
[1] = tested on: Huh-7 cells containing HCV Con1 subgenomic replicon (GS4.1 cells); assay: HCV Replicon Assay (NS4A ELISA); type: cell-based; conditions: Hepatitis C virus, Huh-7, 72 hr, NS4A protein by ELISA
Procedure: General procedure: Huh-7 cells containing HCV Con1 subgenomic replicon (GS4.1 cells) were grown in Dulbecco's Modified Eagle Medium (DMEM) supplemented with 10% fetal bovine serum (FBS), 2 mM L-glutamine, 110 mg/L sodium pyruvate, 1× non-essential amino acids, 100 U/mL penicillin-streptomycin, and 0.5 mg/mL G418 (Invitrogen). For dose-response testing, the cells were seeded in 96-well plates at 7.5×10^3 cells/well in a volume of 50 μL, and incubated at 37° C./5% CO2. Three hours after plating, 50 μL of ten 2-fold serial dilutions of compounds (highest concentration, 75 μM) were added, and cell cultures were incubated at 37° C./5% CO2 in the presence of 0.5% DMSO. Alternatively, compounds were tested at a single concentration of 15 μM. In all cases, Huh-7 cells lacking the HCV replicon served as negative control. The cells were incubated in the presence of compounds for 72 hr after which they were monitored for expression of the NS4A protein by enzyme-linked immunosorbent assay (ELISA). For this, the plates were then fixed for 1 min with acetone/methanol (1:1, v/v), washed twice with phosphate-buffered saline (PBS), 0.1% Tween 20, blocked for 1 hr at room temperature with TNE buffer containing 10% FBS and then incubated for 2 hr at 37° C. with the anti-NS4A mouse monoclonal antibody A-236 (ViroGen) diluted in the same buffer. After washing three times with PBS, 0.1% Tween 20, the cells were incubated 1 hr at 37° C. with anti-mouse immunoglobulin G-peroxidase conjugate in TNE, 10% FBS. After washing as described above, the reaction was developed with O-phenylenediamine (Zymed). The reaction was stopped after 30 min with 2 NH2SO4, and absorbance was read at 492 nm using Sunrise Tecan spectrophotometer. EC50 values were determined from the % inhibition versus concentration data using a sigmoidal non-linear regression analysis based on four parameters with Tecan Magellan software. When screening at a single concentration, the results were expressed as % inhibition at 15 μM.

HCV NS3-NS4A protease = molecular target: T1, HCV NS3-NS4A protease (Hepatitis C virus genotype 1b, UniProt P26663); assay: HCV Protease Assay (SensoLyte 620 HCV Protease Assay kit); type: biochemical; conditions: 1.2 nM HCV NS3-NS4A protease, 60 min at room temperature, 5% DMSO
T1 construct: made in house
T1 sequence (P26663 1027-1208): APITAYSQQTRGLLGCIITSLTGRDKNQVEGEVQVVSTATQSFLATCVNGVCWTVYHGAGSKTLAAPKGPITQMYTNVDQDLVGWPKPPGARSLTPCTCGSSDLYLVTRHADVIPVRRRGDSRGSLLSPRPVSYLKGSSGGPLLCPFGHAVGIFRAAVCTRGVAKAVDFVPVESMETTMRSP
Procedure: General procedure: Measurement of the inhibitory effect of compounds on HCV protease activity was performed with the SensoLyte™ 620 HCV Protease Assay kit from AnaSpec, Inc. (San Jose, Calif.) under conditions described by the supplier using 1.2 nM HCV NS3-NS4A protease, which was obtained according to Taremi et al. (Protein Science, 1998, 7, 2143-2149). The compounds were tested at a variety of concentrations in assay buffer containing a final DMSO concentration of 5%. Reactions were allowed to proceed for 60 min at room temperature and fluorescence measurements were recorded with a Tecan Infinity Spectrofluorimeter. The IC50 values were determined from the percent inhibition versus concentration data using a sigmoidal non-linear regression analysis based on four parameters with Tecan Magellan software.

[2] = Cytotoxicity evaluation (Cell Titer 96 AQueous One Solution Cell Proliferation Assay); type: cell-based; conditions: human; GS4.1 cells, cellular viability
Procedure: For cytotoxicity evaluation, GS4.1 cells were treated with compounds as described above and cellular viability was monitored using the Cell Titer 96 AQueous One Solution Cell Proliferation Assay (Promega). CC50 values were determined from the % cytotoxicity versus concentration data with Tecan Magellan software as described above.

Structure (SMILES)	EC50 [1] [nM]	IC50 (HCV NS3-NS4A protease) [nM]	CC50 [2] [nM]
COc1ccc2c(O[C@H]3C[C@H]4C(=O)N(C)CCCC/C=C\[C@@H]5C[C@@]5(C(=O)NS(=O)(=O)C5CC5)NC(=O)N4C3)cc(-n3ccc(C(F)(F)F)n3)nc2c1C [Compound 91g, (Z)-(4R,6S,15S,17S)-[17-[7-methoxy-8-methyl-2-(3-trifluoromethyl-1H-pyrazol-1-yl)quinolin-4-yloxy]-13-N-methyl-2,14-dioxo-1,3,13-triazatricyclo[13.3.0.0]octadec-7-ene-4-yl]carbonyl(cyclopropyl)sulfonamide]	< 1000	< 1000	> 75000
COc1ccc2c(O[C@H]3C[C@H]4C(=O)N(C)CCCC/C=C\[C@@H]5C[C@@]5(C(=O)NS(=O)(=O)C5(C)CC5)NC(=O)N4C3)cc(-c3csc(C(F)(F)F)n3)nc2c1C [Compound O4, (Z)-(4R,6S,15S,17S)-[17-[7-methoxy-8-methyl-2-(2-trifluoromethylthiazol-4-yl)quinolin-4-yloxy]-13-N-methyl-2,14-dioxo-1,3,13-triazatricyclo-[13.3.0.0]octadec-7-en-4-yl]carbonyl-(1-methylcyclopropyl)sulfonamide]	< 1000	< 1000	> 75000
COc1ccc2c(O[C@H]3C[C@H]4C(=O)N(C)CCCC/C=C\[C@@H]5C[C@@]5(C(=O)NS(=O)(=O)C5(C)CC5)NC(=O)N4C3)cc(-c3csc(C(C)C)n3)nc2c1Cl [Compound 101d, (Z)-(4R,6S,15S,17S)-[17-[8-chloro-7-methoxy-2-(2-isopropythiazol-4-yl)quinolin-4-yloxy]-13-N-methyl-2,14-dioxo-1,3,13-triazatricyclo[13.3.0.0]octadec-7-ene-4-yl]carbonyl(1-methylcyclopropyl)sulfonamide]	< 1000	< 1000	> 75000
COc1cc2c(O[C@H]3C[C@H]4C(=O)N(C)CCCC/C=C\[C@@H]5C[C@@]5(C(=O)NS(=O)(=O)C5(C)CC5)NC(=O)N4C3)cc(-c3nc(C(C)C)cs3)nc2cc1Cl [Compound 56g, (Z)-(4R,6S,15S,17S)-[17-[7-chloro-6-methoxy-2-(4-isopropylthiazol-2-yl)quinolin-4-yloxy]-13-N-methyl-2,14-dioxo-1,3,13-triazatricyclo[13.3.0.0]octadec-7-en-4-yl]carbonyl(1-methyl-cyclopropyl)sulfonamide]	< 1000	< 1000	> 75000
C#Cc1csc(-c2cc(O[C@H]3C[C@H]4C(=O)N(C)CCCC/C=C\[C@@H]5C[C@@]5(C(=O)NS(=O)(=O)C5CC5)NC(=O)N4C3)c3ccc(OC)c(Cl)c3n2)n1 [Compound G1, (Z)-(4R,6S,15S,17S)-[17-[8-chloro-7-methoxy-2-(4-ethynylthiazol-2-yl)quinolin-4-yloxy]-13-N-methyl-2,14-dioxo-1,3,13-triazatricyclo-[13.3.0.0]octadec-7-en-4-yl]carbonyl(cyclopropyl)sulfonamide]	< 1000	< 1000	10000 to 75000
COc1ccc2c(O[C@H]3C[C@H]4C(=O)N(C)CCCC/C=C\[C@@H]5C[C@@]5(C(=O)NS(=O)(=O)C5CC5)NC(=O)N4C3)cc(-c3csc(C(F)(F)F)n3)nc2c1C [Compound O3, (Z)-(4R,6S,15S,17S)-[17-[7-methoxy-8-methyl-2-(2-trifluoromethylthiazol-4-yl)quinolin-4-yloxy]-13-N-methyl-2,14-dioxo-1,3,13-triazatricyclo-[13.3.0.0]octadec-7-en-4-yl]carbonyl-(cyclopropyl)sulfonamide]	< 1000	< 1000	10000 to 75000
C=Cc1csc(-c2cc(O[C@H]3C[C@H]4C(=O)N(C)CCCC/C=C\[C@@H]5C[C@@]5(C(=O)NS(=O)(=O)C5(C)CC5)NC(=O)N4C3)c3ccc(OC)c(Cl)c3n2)n1 [AH, (Z)-(4R,6S,15S,17S)-[17-[8-chloro-7-methoxy-2-(4-vinylthiazol-2-yl)quinolin-4-yloxy]-13-N-methyl-2,14-dioxo-1,3,13-triazatricyclo-[13.3.0.0]octadec-7-en-4-yl]carbonyl(1-methyl-cyclopropyl)sulfonamide]	< 1000	< 1000	10000 to 75000
COc1ccc2c(O[C@H]3C[C@H]4C(=O)N(C)CCCC/C=C\[C@@H]5C[C@@]5(C(=O)NS(=O)(=O)C5CC5)NC(=O)N4C3)cc(-c3nc(C4CCC4)cs3)nc2c1Cl [AC2, (Z)-(4R,6S,15S,17S)-[17-[8-chloro-7-methoxy-2-(4-cyclobutylthiazol-2-yl)quinolin-4-yloxy]-13-N-methyl-2,14-dioxo-1,3,13-triazatricyclo-[13.3.0.0]octadec-7-en-4-yl]carbonyl-(cyclopropyl)sulfonamide]	< 1000	< 1000	10000 to 75000
